Results on four compounds are retold here after BindingDB's records for doi:10.1158/1535-7163.MCT-07-0187 (Burnham Institute For Medical Research, 2007).

Each structure is given as a SMILES string.

The target in this assay is T1, Fatty acid synthase [2202-2509] (Homo sapiens, UniProt P49327).
T1 construct: 2202-2509
T1 sequence (P49327 2202-2509): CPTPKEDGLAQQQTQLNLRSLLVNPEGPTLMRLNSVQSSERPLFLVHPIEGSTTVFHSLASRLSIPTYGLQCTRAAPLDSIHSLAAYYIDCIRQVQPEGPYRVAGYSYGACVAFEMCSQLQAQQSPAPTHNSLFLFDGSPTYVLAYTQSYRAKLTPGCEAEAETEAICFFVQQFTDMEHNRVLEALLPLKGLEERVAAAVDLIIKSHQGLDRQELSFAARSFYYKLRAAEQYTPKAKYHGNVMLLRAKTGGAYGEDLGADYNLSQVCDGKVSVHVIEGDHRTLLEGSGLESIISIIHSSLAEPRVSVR
The assay is described as follows: Fluorogenic Assay for Detection of FASTE Inhibition. The conditions noted are these: pH 7.5; 37 °C.
Method: The reaction mixture consisted of FAS thioesterase domain (FASTE) in buffer, which was preincubated with test compounds for 30 min. The reaction was initiated by addition of substrate 4-MUH. […] The inhibition constants (Ki) were calculated using the equation of Cheng and Prusoff.
Consider `Cc1cc(C)cc(N2C(=O)NC(=O)C(=Cc3ccc(-c4ccccc4)o3)C2=O)c1` [(5E)-1-(3,5-dimethylphenyl)-5-[(5-phenylfuran-2-yl)methylidene]-1,3-diazinane-2,4,6-trione], for which the affinity corresponds to a Ki of 380 nM.

For the compound `O=C1NC(=O)N(c2cccc(Br)c2)C(=O)C1=Cc1ccc(-c2ccccc2[N+](=O)[O-])o1` [(5E)-1-(3-bromophenyl)-5-{[5-(2-nitrophenyl)furan-2-yl]methylidene}-1,3-diazinane-2,4,6-trione], the Ki was found to be 880 nM.

The compound `O=C1NC(=O)N(Cc2ccccc2)C(=O)/C1=C/c1ccc(-c2ccccc2Cl)o1` [(5E)-1-benzyl-5-{[5-(2-chlorophenyl)furan-2-yl]methylidene}-1,3-diazinane-2,4,6-trione] returned a Ki of 850 nM.

In turn, `Cc1ccccc1N1C(=O)NC(=O)C(=Cc2ccc(-c3ccc(F)cc3)o2)C1=O` [(5E)-5-{[5-(4-fluorophenyl)furan-2-yl]methylidene}-1-(2-methylphenyl)-1,3-diazinane-2,4,6-trione] showed a Ki of 910 nM.

By Ki is commonly meant the dissociation constant of the complex between target and ligand, obtained from inhibition or displacement. Low readings indicate higher affinity, high ones lower affinity.
